Measurements reported in PubChem BioAssay AID1745844 (Carcinogenic Potency Database (CPDB), 2022).
Activity calls are given as the source filed them. How the calls were made is not given here.

System: rodent lifetime carcinogenesis bioassay, tumor incidence TD50
Experiment: carcinogenic potency in animals, long-term in vivo studies, CPDB compilation (AID 1745844)

O=S(=O)(Oc1ccc(Cl)cc1)c1ccc(Cl)cc1
inactive: carcinogen call (mouse, strain B6AKF1, females, oral dosing, site: any site (literature study), lesion: several types, types named in the paper, dosed 76 weeks, study length 76 weeks) negative | carcinogen call (mouse, strain B6AKF1, females, oral dosing, site: liver, lesion: hepatoma, dosed 76 weeks, study length 76 weeks) negative | carcinogen call (mouse, strain B6AKF1, females, oral dosing, site: lung, lesion: adenoma, dosed 76 weeks, study length 76 weeks) negative | carcinogen call (mouse, strain B6AKF1, males, oral dosing, site: any site (literature study), lesion: several types, types named in the paper, dosed 76 weeks, study length 76 weeks) negative | carcinogen call (mouse, strain B6AKF1, males, oral dosing, site: liver, lesion: hepatoma, dosed 76 weeks, study length 76 weeks) negative | carcinogen call (mouse, strain B6AKF1, males, oral dosing, site: lung, lesion: adenoma, dosed 76 weeks, study length 76 weeks) negative | TD50 (mouse, strain B6C3F1, females, oral dosing, site: any site (literature study), lesion: several types, types named in the paper, dosed 76 weeks, study length 76 weeks) 931 mg/kg/day | TD50 (mouse, strain B6C3F1, females, oral dosing, site: liver, lesion: hepatoma, dosed 76 weeks, study length 76 weeks) 931 mg/kg/day | carcinogen call (mouse, strain B6C3F1, females, oral dosing, site: lung, lesion: several types, types named in the paper, dosed 76 weeks, study length 76 weeks) negative | TD50 (mouse, strain B6C3F1, males, oral dosing, site: any site (literature study), lesion: several types, types named in the paper, dosed 76 weeks, study length 76 weeks) 84.5 mg/kg/day | TD50 (mouse, strain B6C3F1, males, oral dosing, site: liver, lesion: hepatoma, dosed 76 weeks, study length 76 weeks) 422 mg/kg/day | TD50 (mouse, strain B6C3F1, males, oral dosing, site: lung, lesion: adenoma, dosed 76 weeks, study length 76 weeks) 869 mg/kg/day

O=[N+]([O-])c1ccc2ccc3cccc4ccc1c2c34
active: TD50 (rat, strain Fischer 344/Jcl, females, by gavage, site: all sites, lesion: mononuclear-cell leukemia, dosed 55 weeks, study length 104 weeks) 4.33 mg/kg/day | TD50 (rat, strain Fischer 344/Jcl, females, by gavage, site: clitoral gland, lesion: several types, types named in the paper, dosed 55 weeks, study length 104 weeks) 6.16 mg/kg/day | TD50 (rat, strain Fischer 344/Jcl, females, by gavage, site: clitoral gland, lesion: squamous-cell carcinoma, dosed 55 weeks, study length 104 weeks) 6.08 mg/kg/day | TD50 (rat, strain Fischer 344/Jcl, females, by gavage, site: mammary gland, lesion: adenocarcinoma, dosed 55 weeks, study length 104 weeks) 4.82 mg/kg/day | TD50 (rat, strain Fischer 344/Jcl, females, by gavage, site: mammary gland, lesion: several types, types named in the paper, dosed 55 weeks, study length 104 weeks) 3.33 mg/kg/day
51.4 mg/kg/day: TD50 (rat, strain Fischer 344/Jcl, females, by gavage, site: mammary gland, lesion: adenoma, dosed 55 weeks, study length 104 weeks)
13.1 mg/kg/day: TD50 (rat, strain Fischer 344/Jcl, females, by gavage, site: uterus, lesion: endometrial stromal polyp, dosed 55 weeks, study length 104 weeks)
39.6 mg/kg/day: TD50 (rat, strain Fischer 344/Jcl, females, by gavage, site: mammary gland, lesion: fibroadenoma, dosed 55 weeks, study length 104 weeks)
157 mg/kg/day: TD50 (rat, strain Fischer 344/Jcl, females, by gavage, site: clitoral gland, lesion: adenocarcinoma, dosed 55 weeks, study length 104 weeks)
